This is an account of results in publication PMC7287953, “Potential Therapeutic Targeting of Coronavirus Spike Glycoprotein Priming” (Molecules, 2020).

In general, solubility refers to how much of the substance goes into solution per volume. Low readings indicate a poorly soluble substance, high ones a readily soluble substance. In general, IC50 refers to the concentration at which inhibition is half-maximal. High values mean lower potency, low ones higher potency. One may read the bioavailability as the share of a dose that reaches the circulation, judged against a reference dose that is usually intravenous. Read a high bioavailability as good availability. The AUC is the area under the concentration-time curve, a measure of exposure.

Data set [1] relates to anthrax toxin LF/PA. On the set-up: species or system Balb/c mice. Conditions: mouse, in vivo.
The nature of data set [2]: Toxicity study, I.P. dosing and blood chemistry.
Data set [3] can be described thus: physchem. Conditions: 25 °C, pH 7.2, aqueous buffer.
Data set [4] concerns RAW 264.7 murine monocyte macrophages. Format: cell-based.
The target of data set [5] is T1, hPC1/3 (Homo sapiens, UniProt P29120).
T1 sequence (P29120 111-753): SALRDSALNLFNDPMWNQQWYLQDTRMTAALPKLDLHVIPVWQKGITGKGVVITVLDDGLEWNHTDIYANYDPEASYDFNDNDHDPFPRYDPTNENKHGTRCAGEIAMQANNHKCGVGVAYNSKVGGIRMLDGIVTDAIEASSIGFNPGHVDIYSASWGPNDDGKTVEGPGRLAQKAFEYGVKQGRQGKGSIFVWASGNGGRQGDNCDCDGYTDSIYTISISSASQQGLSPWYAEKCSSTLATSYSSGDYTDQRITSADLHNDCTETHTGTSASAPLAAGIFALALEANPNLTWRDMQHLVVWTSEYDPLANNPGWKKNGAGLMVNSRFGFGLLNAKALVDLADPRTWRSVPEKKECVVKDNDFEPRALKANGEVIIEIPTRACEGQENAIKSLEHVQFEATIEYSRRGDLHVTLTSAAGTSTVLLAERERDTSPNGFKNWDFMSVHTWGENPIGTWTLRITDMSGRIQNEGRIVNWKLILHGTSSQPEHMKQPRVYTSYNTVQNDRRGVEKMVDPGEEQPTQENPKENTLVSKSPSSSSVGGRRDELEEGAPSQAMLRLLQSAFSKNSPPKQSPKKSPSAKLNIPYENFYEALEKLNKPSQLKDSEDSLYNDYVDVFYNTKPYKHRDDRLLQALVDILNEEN
As to the kind of experiment: Inhibition of hPC1/3 activity, fluorescent substrate Pyr-RTKR-AMC. Format: biochemical.

The nature of data set [6]: Plasma stability by LCMS. The note with it: rat plasma, after 60 min incubation.
The conditions of data set [7]: mouse, in vivo, 30 mg/kg.
In data set [8] the target is T2, hPC7 (Homo sapiens, UniProt Q16549).
T2 sequence (Q16549 142-785): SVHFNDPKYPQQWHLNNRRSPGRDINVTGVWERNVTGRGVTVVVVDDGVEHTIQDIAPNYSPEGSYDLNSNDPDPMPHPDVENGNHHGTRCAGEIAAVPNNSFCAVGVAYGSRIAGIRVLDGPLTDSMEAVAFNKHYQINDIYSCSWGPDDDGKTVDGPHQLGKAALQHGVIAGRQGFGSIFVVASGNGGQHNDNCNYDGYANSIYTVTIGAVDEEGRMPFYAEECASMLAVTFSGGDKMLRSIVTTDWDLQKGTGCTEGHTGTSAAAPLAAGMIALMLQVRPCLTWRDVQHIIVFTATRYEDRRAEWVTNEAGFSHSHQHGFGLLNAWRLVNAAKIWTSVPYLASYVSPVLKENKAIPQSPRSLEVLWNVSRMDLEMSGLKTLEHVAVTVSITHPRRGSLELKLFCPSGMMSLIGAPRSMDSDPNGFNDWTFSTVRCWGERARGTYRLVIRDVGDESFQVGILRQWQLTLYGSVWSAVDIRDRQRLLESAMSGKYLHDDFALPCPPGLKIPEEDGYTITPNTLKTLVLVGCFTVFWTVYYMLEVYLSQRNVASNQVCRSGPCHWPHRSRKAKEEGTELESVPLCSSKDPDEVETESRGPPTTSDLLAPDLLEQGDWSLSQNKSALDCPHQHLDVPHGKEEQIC
The experiment in a line: Specificity for furin-like PCs: hPC7 inhibition. Format: biochemical. The note with it: Table S2.

Data set [9] addresses T3, trypsin from bovine pancreas (Bos taurus, UniProt P00760).
T3 construct: from tissue; host or cells: bovine pancreas
T3 sequence (P00760 24-246): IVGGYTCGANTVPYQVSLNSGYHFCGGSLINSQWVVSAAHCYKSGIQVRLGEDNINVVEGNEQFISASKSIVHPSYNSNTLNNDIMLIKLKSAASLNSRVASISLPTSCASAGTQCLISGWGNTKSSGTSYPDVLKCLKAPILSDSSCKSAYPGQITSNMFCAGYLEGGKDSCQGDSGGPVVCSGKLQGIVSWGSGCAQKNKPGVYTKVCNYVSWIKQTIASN
As to the kind of experiment: Inhibition of trypsin from bovine pancreas. The note with it: at 10 µM; trypsin as model enzyme for TMPRSS2. Format: biochemical.

The target of data set [10] is T4, furin (Homo sapiens, UniProt P09958).
T4 construct: made in house
T4 sequence (P09958 108-794): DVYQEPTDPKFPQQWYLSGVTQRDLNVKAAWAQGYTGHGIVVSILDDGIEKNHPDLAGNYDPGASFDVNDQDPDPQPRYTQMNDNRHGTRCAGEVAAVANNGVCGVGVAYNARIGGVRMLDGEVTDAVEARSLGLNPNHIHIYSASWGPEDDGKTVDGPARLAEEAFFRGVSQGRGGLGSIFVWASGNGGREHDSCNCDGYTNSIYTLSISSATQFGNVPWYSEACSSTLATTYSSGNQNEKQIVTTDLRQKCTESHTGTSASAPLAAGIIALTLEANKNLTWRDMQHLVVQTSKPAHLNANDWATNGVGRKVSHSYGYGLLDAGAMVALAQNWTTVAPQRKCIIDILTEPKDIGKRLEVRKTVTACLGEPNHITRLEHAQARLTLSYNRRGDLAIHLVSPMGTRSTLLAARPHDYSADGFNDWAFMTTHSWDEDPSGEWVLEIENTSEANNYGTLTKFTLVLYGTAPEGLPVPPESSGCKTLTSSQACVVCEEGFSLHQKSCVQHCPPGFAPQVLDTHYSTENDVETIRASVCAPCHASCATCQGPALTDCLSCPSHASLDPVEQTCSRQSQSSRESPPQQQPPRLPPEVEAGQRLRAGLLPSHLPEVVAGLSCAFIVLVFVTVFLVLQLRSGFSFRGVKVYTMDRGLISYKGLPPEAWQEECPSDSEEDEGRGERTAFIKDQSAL
As to the kind of experiment: Inhibition of furin activity, fluorescent substrate Pyr-RTKR-AMC. Format: biochemical.

Data set [11] addresses T5, hPC2 (Homo sapiens, UniProt P16519).
T5 sequence (P16519 110-638): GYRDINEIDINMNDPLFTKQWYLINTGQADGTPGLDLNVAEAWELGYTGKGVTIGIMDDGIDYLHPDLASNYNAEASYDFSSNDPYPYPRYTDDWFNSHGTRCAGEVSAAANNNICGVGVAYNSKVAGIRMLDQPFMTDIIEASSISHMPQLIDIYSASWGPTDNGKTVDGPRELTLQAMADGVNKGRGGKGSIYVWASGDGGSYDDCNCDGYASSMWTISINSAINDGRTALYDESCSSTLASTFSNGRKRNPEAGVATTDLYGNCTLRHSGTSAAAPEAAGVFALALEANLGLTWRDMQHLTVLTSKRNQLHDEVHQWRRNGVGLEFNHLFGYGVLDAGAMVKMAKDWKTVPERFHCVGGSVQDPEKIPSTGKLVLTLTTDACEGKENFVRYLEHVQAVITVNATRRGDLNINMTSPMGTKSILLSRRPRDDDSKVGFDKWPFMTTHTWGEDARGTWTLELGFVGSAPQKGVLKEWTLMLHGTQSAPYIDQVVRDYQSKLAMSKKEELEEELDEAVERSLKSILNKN
The experiment in a line: Specificity for furin-like PCs: hPC2 inhibition. Format: biochemical. The note with it: Table S2.

The nature of data set [12]: in vivo. Conditions: mouse.
The test system of data set [13] is SARS-CoV2 surrogate viral particles. Conditions: human cells; cited from earlier work.

Where “and” joins values, the source holds several entries; their conditions need not be identical. Identical values can stand only once. Like-named read-outs stand apart in the source and are kept apart here.

On to `CC(=O)N[C@@H](CCCNC(=N)N)C(=O)N[C@H](C(=O)N[C@@H](Cc1ccc(N=C(N)N)cc1)C(=O)NCc1ccc(C(=N)N)cc1)C(C)C` [compound 1], for which the “MST (median survival time)” value in [1] is 31.5 h and 52.5 h. Moreover, the “TTD (time to death)” value in data set [1] is 48 h and 96 h. Also, the “other blood chemistry values” in data set [2] (5 min after single 20 mg/kg injection) is given as “normal”. In addition, the “acute toxicity, blood chemistry finding” value in data set [2] (5 min after single 20 mg/kg injection, compared to control group) is given as “gross hemolysis”. Moreover, the MTD in data set [2] (female, Balb/c, mouse, in vivo, ip) was approximately 10 mg/kg. Moreover, the mice that died result in data set [2] (single dose 15 mg/kg I.P., 1 h after compound administration) is “all mice”; in [2] (single dose 20 mg/kg I.P., 15 min after compound injection), 2 out of 3. This compound also displayed a solubility in data set [3] of more than 1000 µM. Further, the “EC50 protection of RAW macrophages from LF/PA-induced cell death” value in data set [4] is recorded as “low micromolar range”. Further, the IC50 in data set [5] was 3 nM; in data set [8], 11800 nM; in [10], 9 nM; in data set [11] it was 1860 nM. The “plasma stability, intact” value in [6] is reported as more than 86%. Further, the “absorption after oral administration (in words)” value in data set [7] is reported as “insignificant adsorption”. Moreover, the inhibition of trypsin entry in [9] was “can inhibit this enzyme”. Further, the bioavailability in data set [12] (%F I.P./I.V.) was approximately 100%; in data set [12] (%F P.O./I.V.) it was less than 1%. Besides, the AUC in data set [12] (ip, 3 mg/kg) stood at 2600 ng·h/mL; in data set [12] (iv, 1 mg/kg), 870 ng·h/mL; in [12] (po, 30 mg/kg) it was 26 ng·h/mL.
As for `CN(C)C(=O)COC(=O)Cc1ccc(OC(=O)c2ccc(NC(=N)N)cc2)cc1` [camostat], the “concentrations that attenuated (only partially) entry of SARS-CoV2 surrogate viral particles” value in data set [13] is 10 to 50 µM. The “inhibition of furin (in words)” value is “poor furin inhibitor” in data set [10] and “did not appreciably inhibit furin” in data set [10] (listed as camostat mesylate).
